Test results taken from patent publication US8906909B2 (Curis, Inc., priority 2009, dated 2014).
Like-named read-outs stand apart in the source and are kept apart here.

Tests used:
[1] = test system: U87MG cells; assay: Cell proliferation assay Method B, U87MG; assay type: cell-based; conditions: Homo sapiens, U-87 MG, Glioblastoma, 72 hours, read-out: antiproliferative activity IC50, U87MG
Description: (§1) Cancer cell lines were plated at 5,000 to 10,000 per well in 96-well flat bottomed plates with various concentration of compounds. The cells were incubated with compounds for 72 hours in the presence of 0.5% of fetal bovine serum. Growth inhibition was accessed by adenosine triphosphate (ATP) content assay using Promega CellTiter-Glo kit. Promega CellTiter-Glo kit is an ATP monitoring system based on firefly luciferase. Briefly, 16 μl of mammalian cell lysis and substrate solution was added to 84 μl of culture medium per well to lyse the cells and stabilize the ATP. The mixture was shaken and incubated for 30 minutes and subsequently the luminescence was measured.

[2] = test system: MDA-MB-436 cells; assay: Cell proliferation assay Method B, MDA-MB-436; assay type: cell-based; conditions: Homo sapiens, 72 hours, read-out: antiproliferative activity IC50, MDA-MB-436
Description: as §1

[3] = test system: HCC1937 cells; assay: Cell proliferation assay Method B, HCC1937; assay type: cell-based; conditions: Homo sapiens, 72 hours, read-out: antiproliferative activity IC50, HCC1937
Description: as §1

[4] = test system: MDA-MB-468 cells; assay: Cell proliferation assay Method B, MDA-MB-468; assay type: cell-based; conditions: Homo sapiens, 72 hours, read-out: antiproliferative activity IC50, MDA-MB-468
Description: as §1

[5] = test system: A375 cells; assay: Cell proliferation assay Method B, A375; assay type: cell-based; conditions: Homo sapiens, A-375, Melanoma, 72 hours, read-out: antiproliferative activity IC50, A375
Description: as §1

[6] = test system: H1993 cells; assay: Cell proliferation assay Method A (ATPlite), H1993; assay type: cell-based; conditions: Homo sapiens, NCI-H1993, 72 hours, read-out: antiproliferative activity IC50, H1993
Description: (§2) Cancer cell lines were plated at 5,000 to 10,000 per well in 96-well flat bottomed plates with various concentration of compounds. The cells were incubated with compounds for 72 hours in the presence of 0.5% of fetal bovine serum. Growth inhibition was accessed by adenosine triphosphate (ATP) content assay using Perkin Elmer ATPlite kit. ATPlite is an ATP monitoring system based on firefly luciferase. Briefly, 25 μl of mammalian cell lysis solution was added to 50 μl of phenol red-free culture medium per well to lyse the cells and stabilize the ATP. 25 μl of substrate solution was then added to the well and subsequently the luminescence was measured.

[7] = test system: Sk-Mel-28 cells; assay: Cell proliferation assay Method B, Sk-Mel-28; assay type: cell-based; conditions: Homo sapiens, Melanoma, 72 hours, read-out: antiproliferative activity IC50, Sk-Mel-28
Description: as §1

[8] = test system: H1993 cells; assay: Cell proliferation assay Method B, H1993; assay type: cell-based; conditions: Homo sapiens, NCI-H1993, NSCLC, 72 hours, read-out: antiproliferative activity IC50, H1993
Description: as §1

[9] = test system: H1975 cells; assay: Cell proliferation assay Method B, H1975; assay type: cell-based; conditions: Homo sapiens, NCI-H1975, NSCLC, 72 hours, read-out: antiproliferative activity IC50, H1975
Description: as §1

[10] = test system: HCT-118 cells; assay: Cell proliferation assay Method A (ATPlite), HCT-118; assay type: cell-based; conditions: 72 hours, read-out: antiproliferative activity IC50, HCT-118
Description: as §2

[11] = test system: HDACs (HeLa cell nuclear extracts); assay: HDAC enzymatic activity, Biomol Color de Lys system; assay type: biochemical
Method in brief: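 HeLa nuclear extract as HDAC source with Color de Lys substrate in 50 mM Tris/Cl pH 8.0, 137 mM NaCl, 2.7 mM KCl, 1 mM MgCl2. Serially diluted compounds reacted 1 h at 25 °C, then developer added; fluorescence (Ex 350–380/Em 440–460) fitted sigmoidally for IC50.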

[12] = test system: BT474 cells; assay: Cell proliferation assay Method B, BT474; assay type: cell-based; conditions: Homo sapiens, BT-474, 72 hours, read-out: antiproliferative activity IC50, BT474
Description: as §1

[13] = test system: Ca127 cells; assay: Cell proliferation assay Method B, Ca127; assay type: cell-based; conditions: HNC; Ca127; 72 hours, 0.5% fetal bovine serum, CellTiter-Glo; read-out: antiproliferative activity IC50, Ca127
Description: as §1

[14] = test system: Sk-Mel-28 cells; assay: Cell proliferation assay Method A (ATPlite), Sk-Mel-28; assay type: cell-based; conditions: Homo sapiens, 72 hours, read-out: antiproliferative activity IC50, Sk-Mel-28
Description: as §2

[15] = test system: MDA-MB-231 cells; assay: Cell proliferation assay Method B, MDA-MB-231; assay type: cell-based; conditions: Homo sapiens, 72 hours, 0.5% fetal bovine serum, CellTiter-Glo, read-out: antiproliferative activity IC50, MDA-MB-231
Description: as §1

[16] = test system: BT-474 cells; assay: Cell proliferation assay Method A (ATPlite), BT-474; assay type: cell-based; conditions: Homo sapiens, 72 hours, read-out: antiproliferative activity IC50, BT-474
Description: as §2

[17] = test system: RPMI-8226 cells; assay: Cell proliferation assay Method B, RPMI-8226; assay type: cell-based; conditions: Homo sapiens, Multiple Myeloma, 72 hours, read-out: antiproliferative activity IC50, RPMI-8226
Description: as §1

[18] = test system: MDA-MB-361 cells; assay: Cell proliferation assay Method B, MDA-MB-361; assay type: cell-based; conditions: Homo sapiens, Breast, 72 hours, read-out: antiproliferative activity IC50, MDA-MB-361
Description: as §1

[19] = test system: HCC1806 cells; assay: Cell proliferation assay Method B, HCC1806; assay type: cell-based; conditions: Homo sapiens, Breast, 72 hours, read-out: antiproliferative activity IC50, HCC1806
Description: as §1

[20] = test system: ZR-75-1 cells; assay: Cell proliferation assay Method B, ZR-75-1; assay type: cell-based; conditions: Homo sapiens, Breast, 72 hours, read-out: antiproliferative activity IC50, ZR-75-1
Description: as §1

[21] = test system: MCF-7 cells; assay: Cell proliferation assay Method B, MCF-7; assay type: cell-based; conditions: Homo sapiens, MCF7, Breast, 72 hours, read-out: antiproliferative activity IC50, MCF-7
Description: as §1

[22] = test system: T47D cells; assay: Cell proliferation assay Method B, T47D; assay type: cell-based; conditions: Homo sapiens, Breast, 72 hours, read-out: antiproliferative activity IC50, T47D
Description: as §1

[23] = test system: SKBr3 cells; assay: Cell proliferation assay Method B, SKBr3; assay type: cell-based; conditions: Homo sapiens, SK-BR-3, Breast, 72 hours, read-out: antiproliferative activity IC50, SKBr3
Description: as §1

[24] = test system: HCC1500 cells; assay: Cell proliferation assay Method B, HCC1500; assay type: cell-based; conditions: Breast, 72 hours, read-out: antiproliferative activity IC50, HCC1500
Description: as §1

[25] = U87MG, 0.5% fetal bovine serum, CellTiter-Glo
[26] = 0.5% fetal bovine serum, CellTiter-Glo
[27] = A375, 0.5% fetal bovine serum, CellTiter-Glo
[28] = Sk-Mel-28, 0.5% fetal bovine serum, CellTiter-Glo
[29] = H1993, 0.5% fetal bovine serum, CellTiter-Glo
[30] = H1975, 0.5% fetal bovine serum, CellTiter-Glo
[31] = BT474, 0.5% fetal bovine serum, CellTiter-Glo

Row | SMILES | IC50 [1, 25] | IC50 [2, 26] | IC50 [3, 26] | IC50 [4, 26] | IC50 [5, 27] | IC50 [6] | IC50 [7, 28] | IC50 [8, 29] | IC50 [9, 30] | IC50 [10] | melting point | IC50 [11] | IC50 [12, 31] | IC50 [13] | IC50 [14] | IC50 [15] | IC50 [16] | IC50 ([12]; Breast, Method B) | IC50 [17, 26] | also measured
1 | CN(Cc1cc2nc(-c3ccc(N)nc3)nc(N3CCOCC3)c2s1)c1ncc(C(=O)NO)cn1 [Compound 110, 2-(((2-(6-Aminopyridin-3-yl)-4-morpholinothieno[3,2-d]pyrimidin-6-yl)methyl)(methyl)amino)-N-hydroxypyrimidine-5-carboxamide] | < 10 nM | 10 to 100 nM | 10 to 100 nM | 10 to 100 nM | 10 to 100 nM | < 100 nM | 10 to 100 nM | 10 to 100 nM | 10 to 100 nM | < 100 nM | 175 to 181 °C | < 100 nM | < 10 nM | 10 to 100 nM | < 100 nM | 10 to 100 nM | < 100 nM | – | – | –
2 | CN(Cc1cc2nc(-c3cnc(N)nc3)nc(N3CCOCC3)c2s1)c1ncc(C(=O)NO)cn1 [Compound 115, 2-(((2-(2-aminopyrimidin-5-yl)-4-morpholinothieno[3,2-d]pyrimidin-6-yl)methyl)(methyl)amino)-N-hydroxypyrimidine-5-carboxamide] | 10 to 100 nM | 100 to 1000 nM | 10 to 100 nM | 100 to 1000 nM | 10 to 100 nM | < 100 nM | 10 to 100 nM | – | 10 to 100 nM | < 100 nM | 175 to 181 °C | < 100 nM | 10 to 100 nM | 10 to 100 nM | < 100 nM | – | < 100 nM | – | – | –
3 | CNc1ncc(-c2nc(N3CCOCC3)c3sc(CN(C)c4ncc(C(=O)NO)cn4)cc3n2)cn1 [Compound 116, N-hydroxy-2-(methyl((2-(2-(methylamino)pyrimidin-5-yl)-4-morpholinothieno[3,2-d]pyrimidin-6-yl)methyl)amino)pyrimidine-5-carboxamide] | – | – | – | – | – | < 100 nM | – | – | – | < 100 nM | 183 to 187 °C | < 100 nM | – | – | < 100 nM | – | < 100 nM | 10 to 100 nM | – | IC50 ([1]; Method B): 10 to 100 nM; IC50 ([2]; Breast, Method B): 10 to 100 nM; IC50 ([3]; Breast, Method B): 10 to 100 nM; IC50 ([4]; Breast, Method B): 10 to 100 nM; IC50 ([17]; Method B): < 10 nM; IC50 ([5]; Method B): 10 to 100 nM; IC50 ([7]; SK-MEL-28, Method B): < 10 nM; IC50 ([8]; Method B): 10 to 100 nM; IC50 ([9]; Method B): 10 to 100 nM
4 | CN(Cc1cc2nc(-c3cccc(O)c3)nc(N3CCOCC3)c2s1)c1ncc(C(=O)NO)cn1 [Compound 132, N-hydroxy-2-(((2-(3-hydroxyphenyl)-4-morpholinothieno[3,2-d]pyrimidin-6-yl)methyl)(methyl)amino)pyrimidine-5-carboxamide] | 10 to 100 nM | 10 to 100 nM | 100 to 1000 nM | 100 to 1000 nM | 10 to 100 nM | < 100 nM | 10 to 100 nM | 10 to 100 nM | 10 to 100 nM | < 100 nM | 175 to 181 °C | < 100 nM | < 10 nM | 10 to 100 nM | < 100 nM | – | < 100 nM | – | < 10 nM | –
5 | CC(=O)Nc1ccc(-c2nc(N3CCOCC3)c3sc(CN(C)c4ncc(C(=O)NO)cn4)cc3n2)cc1 [Compound 157, 2-(((2-(4-acetamidophenyl)-4-morpholinothieno[3,2-d]pyrimidin-6-yl)methyl)(methyl)amino)-N-hydroxypyrimidine-5-carboxamide] | 10 to 100 nM | 10 to 100 nM | – | 10 to 100 nM | 10 to 100 nM | – | 10 to 100 nM | 10 to 100 nM | 10 to 100 nM | – | 228 to 230 °C | < 100 nM | < 10 nM | 10 to 100 nM | – | 10 to 100 nM | – | – | 10 to 100 nM | –
6 | COc1ncc(-c2nc(N3CCOCC3)c3sc(CN(C)c4ncc(C(=O)NO)cn4)cc3n2)cn1 [Compound 261, N-Hydroxy-2-(((2-(2-methoxypyrimidin-5-yl)-4-morpholinothieno[3,2-d]pyrimidin-6-yl)methyl)(methyl)amino)pyrimidine-5-carboxamide] | – | – | – | – | – | – | – | – | – | – | 215 to 220 °C | < 100 nM | – | – | – | – | – | < 10 nM | – | IC50 [18]: < 10 nM; IC50 [19]: < 10 nM; IC50 [20]: < 10 nM; IC50 [21]: < 10 nM; IC50 [22]: < 10 nM; IC50 [23]: 10 to 100 nM; IC50 [24]: < 10 nM
